The values below come from US20070292967A1, “Assay for Ligands of the Ecdysone Receptor” (COMMONWEALTH SCIENTIFIC AND INDUSTRIAL RESEARCH OR, priority 2003, published 2007).

Usually Kd stands for the equilibrium constant for the complex coming apart.

Values joined by “and” are separate entries in the source; they are usually repeats but may differ in a detail not shown here. Equal values may be shown once.

Assay [1] has as its system Lepidotera versus Diptera. The conditions noted are these: selectivity between insect orders; cited from earlier work.
Assay [2] addresses LcLBD, recombinant LBD heterodimer of ecdysone receptor from Lucilia cuprina. Description: equilibrium binding of [3H]ponasterone A to LcLBD. The following applies: Langmuir isotherm fit. An excerpt: (§1) Data fitting using a computer algorithm (KalcidaGraph v3.09, Synergy Software) allowed us to obtain Kd values for each receptor-radioligand complex and to ascertain [LBD]tot. Comparison of the [LBD]tot value with the protein concentration of each purified sample indicated the proportion of the recombinant receptor LBD heterodimer molecules that was functional. Testing Fluorescent and Reference Ecdysteroids As Ligands Using a Radioligand-based Assay

Assay [3] addresses MpLBD, recombinant LBD heterodimer of ecdysone receptor from Myzus persicae. Briefly: equilibrium binding of [3H]ponasterone A to MpLBD. The conditions noted are these: Langmuir isotherm fit.
Description: as §1

Assay [4] deals with BtLBD, recombinant LBD heterodimer of ecdysone receptor from Bemisia tabaci. Briefly: equilibrium binding of [3H]ponasterone A to BtLBD. The following applies: Langmuir isotherm fit.
Description: as §1

Assay [5] has as its target HaLBD, recombinant LBD heterodimer of ecdysone receptor from Helicoverpa armigera. Briefly: equilibrium binding of [3H]ponasterone A to HaLBD. The following applies: Langmuir isotherm fit.
Description: as §1

Another assay concerns LcLBD. Briefly: removal of bound [3H]ponasterone A from LcLBD by dialysis. Type of assay: binding, Lucilia cuprina. The following applies: dialysis at room temperature. An excerpt: The same equilibrium binding experiments indicated the properties of functional receptor LBD heterodimer molecules in each preparation to be as follows: LcLBD, 21%; MpLBD, 16%; BtLBD, 8.4%. The value for HaLBD was not determined directly, but by indirect methods it was assigned a provisional value of 15%. The relatively low activity values agree with published observations for the full-length Drosophila melanogaster receptor, for which Sage et al. (1986) remark that ‘. . . the binding activity of unloaded receptor is inherently labile when subjected to standard protein purification techniques. Therefore, the ecdysteroid receptor needs to remain loaded with hormone during most manipulations’. While we agree that a much higher proportion of functional receptor protein can be obtained by conducting the purification in the presence of an ecdysteroid ligand (data not shown), the resulting receptor-ligand complex is not suitable for use in ligand-binding assays. Moreover, bound ecdysteroid ligands are slow to dissociate from the recombinant receptor LBDs. […] We therefore routinely purified the recombinant receptor LBD heterodimers in the absence of any ligands, and corrected the concentration values of the purified LBD heterodimer preparations to account for the proportion of non-functional heterodimer that was present. […]

Chain of LcLBD (O18531 442-677 limits assumed): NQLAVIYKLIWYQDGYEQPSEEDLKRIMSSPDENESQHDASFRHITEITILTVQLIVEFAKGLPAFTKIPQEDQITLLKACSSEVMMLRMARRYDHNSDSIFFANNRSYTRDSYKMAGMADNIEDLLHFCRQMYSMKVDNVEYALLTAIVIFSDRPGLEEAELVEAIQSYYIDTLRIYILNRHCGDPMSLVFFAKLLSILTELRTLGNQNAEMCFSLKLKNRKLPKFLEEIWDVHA
Chain of LcLBD, recombinant LBD heterodimer of ecdysone receptor from Lucilia cuprina (O18531 442-677 limits assumed, one chain of several): as the sequence (O18531 442-677 limits assumed) above

On to `CCc1ccc(C(=O)NN(C(=O)c2cc(C)cc(C)c2)C(C)(C)C)cc1` [RH-5992], for which, in assay [1], the “effectiveness against Lepidotera relative to Diptera” value is “two to three orders of magnitude more effective”.

“[24,25,26,27-^3H(N)]ponasterone A [[^3H]ponasterone A]”: the Kd was 1 ± 0.1 nM in assay [2]; 0.7 nM and 0.72 nM and ~0.7 nM in assay [3]; 1.21 nM and 1.2 nM in assay [4]; 2.53 ± 0.12 nM in assay [5]. In the assay with LcLBD, the “half-life of the radioligand-receptor complex” value is on record as “about 10 h”.
